According to US9340590B2 (priority 2011, dated 2016):
Where two headings read alike, the source gives them in different places. Positions of bridges follow the written chain, without caps; N, C: chain ends. Residues, ends and D or L forms follow the SMILES beside them.

How the values were obtained:
Experiment in all cases: cell-based
hNav1.7 = hNav1.7 (Homo sapiens, UniProt Q15858); type: cell-based; conditions: IonWorks Quattro, read-out: IWQ Use Nav1.7
hNav1.5 = hNav1.5 (Homo sapiens, UniProt Q14524); conditions: IonWorks Quattro, read-out: IWQ Use Nav1.5
Chain of hNav1.5 (Q14524 whole entry, looked up): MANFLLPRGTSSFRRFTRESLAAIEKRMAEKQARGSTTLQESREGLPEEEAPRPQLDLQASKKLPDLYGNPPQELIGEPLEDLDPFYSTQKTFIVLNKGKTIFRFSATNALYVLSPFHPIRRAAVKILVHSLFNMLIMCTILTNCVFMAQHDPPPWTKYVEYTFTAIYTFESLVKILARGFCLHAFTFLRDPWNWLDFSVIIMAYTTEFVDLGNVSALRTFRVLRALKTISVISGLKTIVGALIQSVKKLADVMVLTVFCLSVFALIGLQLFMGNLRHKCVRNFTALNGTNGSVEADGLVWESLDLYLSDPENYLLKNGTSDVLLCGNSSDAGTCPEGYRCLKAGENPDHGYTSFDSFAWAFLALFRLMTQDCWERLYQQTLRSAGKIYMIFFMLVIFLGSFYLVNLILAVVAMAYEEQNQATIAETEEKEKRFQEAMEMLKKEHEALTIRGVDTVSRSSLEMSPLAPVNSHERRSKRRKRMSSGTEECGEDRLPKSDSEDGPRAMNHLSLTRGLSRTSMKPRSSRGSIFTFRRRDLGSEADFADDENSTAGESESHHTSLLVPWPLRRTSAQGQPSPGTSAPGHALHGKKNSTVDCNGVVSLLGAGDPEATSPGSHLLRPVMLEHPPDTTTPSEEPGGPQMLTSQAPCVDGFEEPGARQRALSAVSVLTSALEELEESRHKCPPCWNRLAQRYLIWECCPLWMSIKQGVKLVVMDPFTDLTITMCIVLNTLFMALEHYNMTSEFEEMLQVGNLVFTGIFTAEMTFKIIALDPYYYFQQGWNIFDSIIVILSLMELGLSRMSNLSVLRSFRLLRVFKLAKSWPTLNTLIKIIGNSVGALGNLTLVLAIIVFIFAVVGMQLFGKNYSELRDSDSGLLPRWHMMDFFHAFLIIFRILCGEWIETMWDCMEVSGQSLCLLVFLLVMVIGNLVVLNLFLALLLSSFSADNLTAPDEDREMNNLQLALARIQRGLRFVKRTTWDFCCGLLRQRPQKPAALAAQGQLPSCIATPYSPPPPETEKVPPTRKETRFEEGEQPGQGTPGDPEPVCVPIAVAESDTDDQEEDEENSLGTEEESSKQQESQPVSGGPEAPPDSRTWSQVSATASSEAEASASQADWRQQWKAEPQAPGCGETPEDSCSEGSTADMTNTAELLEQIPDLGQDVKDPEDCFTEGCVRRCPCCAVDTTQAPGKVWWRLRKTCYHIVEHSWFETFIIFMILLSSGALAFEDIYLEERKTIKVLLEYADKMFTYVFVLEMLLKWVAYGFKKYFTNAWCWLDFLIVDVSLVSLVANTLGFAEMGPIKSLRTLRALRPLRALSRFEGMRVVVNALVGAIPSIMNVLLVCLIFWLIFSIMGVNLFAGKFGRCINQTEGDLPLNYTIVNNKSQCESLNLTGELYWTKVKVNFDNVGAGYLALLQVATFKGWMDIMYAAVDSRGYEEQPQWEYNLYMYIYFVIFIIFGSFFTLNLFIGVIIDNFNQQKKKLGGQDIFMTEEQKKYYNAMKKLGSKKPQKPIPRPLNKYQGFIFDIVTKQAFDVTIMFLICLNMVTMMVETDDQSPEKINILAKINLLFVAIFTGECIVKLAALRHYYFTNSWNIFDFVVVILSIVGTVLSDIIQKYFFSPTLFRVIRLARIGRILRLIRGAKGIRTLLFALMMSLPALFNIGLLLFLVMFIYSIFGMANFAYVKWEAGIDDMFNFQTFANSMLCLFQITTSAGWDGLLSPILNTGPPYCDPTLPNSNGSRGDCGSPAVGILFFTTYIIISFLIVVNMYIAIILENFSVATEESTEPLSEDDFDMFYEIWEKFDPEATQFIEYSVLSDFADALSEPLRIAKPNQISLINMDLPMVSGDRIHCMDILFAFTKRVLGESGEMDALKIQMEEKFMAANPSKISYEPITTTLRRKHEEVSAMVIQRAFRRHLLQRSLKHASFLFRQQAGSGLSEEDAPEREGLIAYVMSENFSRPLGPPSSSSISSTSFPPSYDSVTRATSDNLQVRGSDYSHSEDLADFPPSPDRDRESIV

hNav1.3 = hNav1.3 (Homo sapiens, UniProt Q9NY46); conditions: IonWorks Quattro, read-out: IWQ Use Nav1.3
Chain of hNav1.3 (Q9NY46 whole entry, looked up): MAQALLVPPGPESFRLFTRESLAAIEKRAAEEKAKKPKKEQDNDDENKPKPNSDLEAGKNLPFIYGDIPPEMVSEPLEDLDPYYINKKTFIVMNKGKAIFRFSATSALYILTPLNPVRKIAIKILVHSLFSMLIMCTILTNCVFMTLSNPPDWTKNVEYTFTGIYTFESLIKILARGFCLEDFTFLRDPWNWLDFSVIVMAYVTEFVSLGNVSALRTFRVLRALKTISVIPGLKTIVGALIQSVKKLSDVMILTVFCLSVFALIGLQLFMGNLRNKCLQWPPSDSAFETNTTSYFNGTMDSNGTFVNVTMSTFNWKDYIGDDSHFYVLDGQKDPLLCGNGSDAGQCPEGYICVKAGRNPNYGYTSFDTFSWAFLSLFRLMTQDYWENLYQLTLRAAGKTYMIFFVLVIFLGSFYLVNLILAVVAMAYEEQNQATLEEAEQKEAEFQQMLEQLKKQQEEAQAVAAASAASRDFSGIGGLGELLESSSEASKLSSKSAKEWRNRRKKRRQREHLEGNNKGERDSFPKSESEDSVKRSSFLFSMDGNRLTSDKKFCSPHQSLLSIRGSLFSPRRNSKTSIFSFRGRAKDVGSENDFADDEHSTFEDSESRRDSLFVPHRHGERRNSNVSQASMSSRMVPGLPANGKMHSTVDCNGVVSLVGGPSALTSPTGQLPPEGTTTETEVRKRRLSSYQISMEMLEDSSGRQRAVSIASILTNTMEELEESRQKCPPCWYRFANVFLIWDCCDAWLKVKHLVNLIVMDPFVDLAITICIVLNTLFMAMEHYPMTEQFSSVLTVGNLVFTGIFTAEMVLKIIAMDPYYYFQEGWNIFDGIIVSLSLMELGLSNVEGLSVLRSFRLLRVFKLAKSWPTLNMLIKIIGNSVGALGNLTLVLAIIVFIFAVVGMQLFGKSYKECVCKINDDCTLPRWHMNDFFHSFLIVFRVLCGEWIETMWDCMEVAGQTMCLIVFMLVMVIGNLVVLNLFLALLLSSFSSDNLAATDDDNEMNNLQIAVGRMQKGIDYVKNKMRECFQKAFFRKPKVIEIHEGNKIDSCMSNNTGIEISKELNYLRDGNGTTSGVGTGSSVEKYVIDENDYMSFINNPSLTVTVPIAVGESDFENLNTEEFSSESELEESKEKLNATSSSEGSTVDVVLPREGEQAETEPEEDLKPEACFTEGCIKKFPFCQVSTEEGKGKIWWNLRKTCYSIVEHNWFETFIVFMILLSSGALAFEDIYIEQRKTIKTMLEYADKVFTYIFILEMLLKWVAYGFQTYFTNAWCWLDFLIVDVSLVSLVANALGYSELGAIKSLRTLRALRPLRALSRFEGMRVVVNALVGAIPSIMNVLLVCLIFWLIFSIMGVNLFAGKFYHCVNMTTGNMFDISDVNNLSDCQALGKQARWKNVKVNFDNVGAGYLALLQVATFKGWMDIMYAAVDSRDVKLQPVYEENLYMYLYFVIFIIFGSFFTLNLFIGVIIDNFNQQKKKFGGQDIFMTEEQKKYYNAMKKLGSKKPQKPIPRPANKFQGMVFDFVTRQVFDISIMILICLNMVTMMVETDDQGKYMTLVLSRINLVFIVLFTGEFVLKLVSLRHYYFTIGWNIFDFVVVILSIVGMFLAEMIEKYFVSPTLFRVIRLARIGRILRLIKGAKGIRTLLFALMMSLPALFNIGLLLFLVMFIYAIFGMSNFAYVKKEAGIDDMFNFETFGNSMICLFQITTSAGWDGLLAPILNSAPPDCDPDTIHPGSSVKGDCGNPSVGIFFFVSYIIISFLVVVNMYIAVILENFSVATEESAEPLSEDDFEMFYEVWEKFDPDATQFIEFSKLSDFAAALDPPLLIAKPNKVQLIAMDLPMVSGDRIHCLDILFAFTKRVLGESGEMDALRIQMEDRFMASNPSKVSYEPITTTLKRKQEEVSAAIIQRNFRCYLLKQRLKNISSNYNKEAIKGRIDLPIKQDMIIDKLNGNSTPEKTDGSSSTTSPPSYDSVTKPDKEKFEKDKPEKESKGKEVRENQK

[1] = clamped to −110 mV, depolarized to −10 mV, 5 min after compound, n=2

SMILES | IC50 (hNav1.7; [1]) [nM] | IC50 (hNav1.5; [1]) [nM] | IC50 (hNav1.3; [1]) [nM] | IC50 (hNav1.7; use-dependent block, hNav1.7) [nM] | IC50 (hNav1.5; use-dependent block, hNav1.5) [nM] | IC50 (hNav1.3; use-dependent block, hNav1.3) [nM]
CC[C@H](C)[C@@H]1NC(=O)[C@@H]2CSSC[C@@H]3NC(=O)[C@H](C(C)C)NC(=O)[C@H](CC(C)C)NC(=O)[C@H](CC(N)=O)NC(=O)[C@@H]4CCCN4C(=O)[C@H](CCCNC(=N)N)NC(=O)[C@H](CSSC[C@H](NC(=O)[C@@H](N)CC(=O)O)C(=O)N[C@@H](CC(C)C)C(=O)NCC(=O)N[C@@H](Cc4ccccc4)C(=O)N[C@@H](c4ccccc4)C(=O)N[C@@H](CCCNC(=N)N)C(=O)N[C@@H](CCCCN)C(=O)N2)NC(=O)[C@H](CSSC[C@@H](C(=O)N[C@@H](CCCCN)C(=O)N[C@@H](Cc2ccc(O)cc2)C(=O)N[C@H](C(=O)N[C@@H](Cc2ccccc2)C(N)=O)C(C)C)NC(=O)[C@H](Cc2c[nH]c4ccccc24)NC(=O)[C@H](CCCCN)NC(=O)[C@H](Cc2c[nH]cn2)NC(=O)[C@H]([C@@H](C)O)NC(=O)[C@H](CCCNC(=N)N)NC(=O)[C@H](CO)NC3=O)NC(=O)[C@H](CCCCN)NC(=O)[C@H](CC(=O)O)NC(=O)[C@H](CC(N)=O)NC(=O)[C@H](CC(=O)O)NC(=O)[C@@H]2CCCN2C1=O [SEQ ID NO: 288] | 150 | > 5000 | 90 | – | – | –
CC[C@H](C)[C@@H]1NC(=O)[C@@H]2CSSC[C@@H]3NC(=O)[C@H](C(C)C)NC(=O)[C@H](CC(C)C)NC(=O)[C@H](CC(N)=O)NC(=O)[C@@H]4CCCN4C(=O)[C@H](CCCNC(=N)N)NC(=O)[C@H](CSSC[C@H](NC(=O)[C@@H](N)CC(=O)O)C(=O)N[C@@H](CC(C)C)C(=O)NCC(=O)N[C@@H](Cc4ccccc4)C(=O)N(C)[C@@H](Cc4c[nH]c5ccccc45)C(=O)N[C@@H](CCCNC(=N)N)C(=O)N[C@@H](CCCCN)C(=O)N2)NC(=O)[C@H](CSSC[C@@H](C(=O)N[C@@H](CCCCN)C(=O)N[C@@H](Cc2ccc(O)cc2)C(=O)N[C@H](C(=O)N[C@@H](Cc2ccccc2)C(N)=O)C(C)C)NC(=O)[C@H](Cc2c[nH]c4ccccc24)NC(=O)[C@H](CCCCN)NC(=O)[C@H](Cc2c[nH]cn2)NC(=O)[C@H]([C@@H](C)O)NC(=O)[C@H](CCCNC(=N)N)NC(=O)[C@H](CO)NC3=O)NC(=O)[C@H](CCCCN)NC(=O)[C@H](CC(=O)O)NC(=O)[C@H](CC(N)=O)NC(=O)[C@H](CC(=O)O)NC(=O)[C@@H]2CCCN2C1=O [SEQ ID NO: 289] | 140 | 21400 | 240 | – | – | –
CC[C@H](C)[C@@H]1NC(=O)[C@@H]2CSSC[C@@H]3NC(=O)[C@H](C(C)C)NC(=O)[C@H](CC(C)C)NC(=O)[C@H](CC(N)=O)NC(=O)[C@@H]4CCCN4C(=O)[C@H](CCCNC(=N)N)NC(=O)[C@H](CSSC[C@H](NC(=O)[C@@H](N)CC(=O)O)C(=O)N[C@@H](CC(C)C)C(=O)NCC(=O)N[C@@H](Cc4ccccc4)C(=O)N(C)[C@@H](Cc4ccccc4)C(=O)N[C@@H](CCCNC(=N)N)C(=O)N[C@@H](CCCCN)C(=O)N2)NC(=O)[C@H](CSSC[C@@H](C(=O)N[C@@H](CCCCN)C(=O)N[C@@H](Cc2ccc(O)cc2)C(=O)N[C@H](C(=O)N[C@@H](Cc2ccccc2)C(N)=O)C(C)C)NC(=O)[C@H](Cc2c[nH]c4ccccc24)NC(=O)[C@H](CCCCN)NC(=O)[C@H](Cc2c[nH]cn2)NC(=O)[C@H]([C@@H](C)O)NC(=O)[C@H](CCCNC(=N)N)NC(=O)[C@H](CO)NC3=O)NC(=O)[C@H](CCCCN)NC(=O)[C@H](CC(=O)O)NC(=O)[C@H](CC(N)=O)NC(=O)[C@H](CC(=O)O)NC(=O)[C@@H]2CCCN2C1=O [SEQ ID NO: 290] | 240 | 10600 | 140 | – | – | –
CC[C@H](C)[C@@H]1NC(=O)[C@@H]2CSSC[C@@H]3NC(=O)[C@H](C(C)C)NC(=O)[C@H](CC(C)C)NC(=O)[C@H](CC(N)=O)NC(=O)[C@@H]4CCCN4C(=O)[C@H](CCCNC(=N)N)NC(=O)[C@H](CSSC[C@H](NC(=O)[C@@H](N)CC(=O)O)C(=O)N[C@@H](CC(C)C)C(=O)NCC(=O)N[C@@H](Cc4ccccc4)C(=O)N[C@@H](Cc4cn(C)c5ccccc45)C(=O)N[C@@H](CCCNC(=N)N)C(=O)N[C@@H](CCCCN)C(=O)N2)NC(=O)[C@H](CSSC[C@@H](C(=O)N[C@@H](CCCCN)C(=O)N[C@@H](Cc2ccc(O)cc2)C(=O)N[C@H](C(=O)N[C@@H](Cc2ccccc2)C(N)=O)C(C)C)NC(=O)[C@H](Cc2c[nH]c4ccccc24)NC(=O)[C@H](CCCCN)NC(=O)[C@H](Cc2c[nH]cn2)NC(=O)[C@H]([C@@H](C)O)NC(=O)[C@H](CCCNC(=N)N)NC(=O)[C@H](CO)NC3=O)NC(=O)[C@H](CCCCN)NC(=O)[C@H](CC(=O)O)NC(=O)[C@H](CC(N)=O)NC(=O)[C@H](CC(=O)O)NC(=O)[C@@H]2CCCN2C1=O [SEQ ID NO: 292] | 40 | 5660 | 30 | – | – | –
CC[C@H](C)[C@@H]1NC(=O)[C@@H]2CSSC[C@@H]3NC(=O)[C@H](C(C)C)NC(=O)[C@H](CC(C)C)NC(=O)[C@H](CC(N)=O)NC(=O)[C@@H]4CCCN4C(=O)[C@H](CCCNC(=N)N)NC(=O)[C@H](CSSC[C@H](NC(=O)[C@@H](N)CC(=O)O)C(=O)N[C@@H](CC(C)C)C(=O)NCC(=O)N[C@@H](Cc4ccccc4)C(=O)N[C@@H](Cc4ccc(C(=O)O)cc4)C(=O)N[C@@H](CCCNC(=N)N)C(=O)N[C@@H](CCCCN)C(=O)N2)NC(=O)[C@H](CSSC[C@@H](C(=O)N[C@@H](CCCCN)C(=O)N[C@@H](Cc2ccc(O)cc2)C(=O)N[C@H](C(=O)N[C@@H](Cc2ccccc2)C(N)=O)C(C)C)NC(=O)[C@H](Cc2c[nH]c4ccccc24)NC(=O)[C@H](CCCCN)NC(=O)[C@H](Cc2c[nH]cn2)NC(=O)[C@H]([C@@H](C)O)NC(=O)[C@H](CCCNC(=N)N)NC(=O)[C@H](CO)NC3=O)NC(=O)[C@H](CCCCN)NC(=O)[C@H](CC(=O)O)NC(=O)[C@H](CC(N)=O)NC(=O)[C@H](CC(=O)O)NC(=O)[C@@H]2CCCN2C1=O [SEQ ID NO: 293] | 15800 | 11100 | 13800 | – | – | –
CC[C@H](C)[C@H](NC(=O)[C@H](CCC(=O)O)NC(=O)[C@H](Cc1ccc(O)cc1)NC(=O)[C@H](CCCCN)NC(=O)[C@@H]1CSSC[C@@H]2NC(=O)[C@H](CCCCN)NC(=O)[C@H](CC(=O)O)NC(=O)[C@H](CC(N)=O)NC(=O)[C@H](CC(=O)O)NC(=O)[C@@H]3CCCN3C(=O)[C@H](CO)NC(=O)[C@@H]3CSSC[C@H](NC(=O)[C@H](C(C)C)NC(=O)[C@H](CC(C)C)NC(=O)[C@H](CC(N)=O)NC(=O)[C@@H]4CCCN4C(=O)[C@H](CCCNC(=N)N)NC(=O)[C@H](CSSC[C@H](NC(=O)[C@@H](N)CC(=O)O)C(=O)N[C@@H](CC(C)C)C(=O)NCC(=O)N[C@@H](Cc4ccccc4)C(=O)N[C@@H](CCSC)C(=O)N[C@@H](CCCNC(=N)N)C(=O)N[C@@H](CCCCN)C(=O)N3)NC2=O)C(=O)N[C@@H](CO)C(=O)N[C@@H](CCCNC(=N)N)C(=O)N[C@@H](CCCCN)C(=O)N[C@@H](Cc2c[nH]cn2)C(=O)N[C@@H](CCCCN)C(=O)N[C@@H](Cc2c[nH]c3ccccc23)C(=O)N1)C(N)=O [SEQ ID NO: 467] (H-DCLGFMRKCSPDNDKCCRPNLVCSRKHKWCKYEI-NH2; disulfide 2-17, 9-23, 16-30) | 4340 | 7210 | 1150 | – | – | –
CC[C@H](C)[C@@H]1NC(=O)[C@@H]2CSSC[C@@H]3NC(=O)[C@H](C(C)C)NC(=O)[C@H](CC(C)C)NC(=O)[C@H](CC(N)=O)NC(=O)[C@@H]4CCCN4C(=O)[C@H](CCCNC(=N)N)NC(=O)[C@H](CSSC[C@H](NC(=O)[C@@H](N)CC(=O)O)C(=O)N[C@@H](CC(C)C)C(=O)NCC(=O)N[C@@H](Cc4ccccc4)C(=O)N[C@@H](CCSC)C(=O)N[C@@H](CCCNC(=N)N)C(=O)N[C@@H](C)C(=O)N2)NC(=O)[C@H](CSSC[C@@H](C(=O)N[C@@H](CCCCN)C(=O)N[C@@H](Cc2ccc(O)cc2)C(=O)N[C@H](C(=O)N[C@@H](Cc2ccccc2)C(N)=O)C(C)C)NC(=O)[C@H](Cc2c[nH]c4ccccc24)NC(=O)[C@H](CCCCN)NC(=O)[C@H](Cc2cnc[nH]2)NC(=O)[C@H]([C@@H](C)O)NC(=O)[C@H](CCCNC(=N)N)NC(=O)[C@H](CO)NC3=O)NC(=O)[C@H](CCCCN)NC(=O)[C@H](CC(=O)O)NC(=O)[C@H](CC(N)=O)NC(=O)[C@H](CC(=O)O)NC(=O)[C@@H]2CCCN2C1=O [[Ala8]GpTx-1(1-34)] (H-DCLGFMRACIPDNDKCCRPNLVCSRTHKWCKYVF-NH2; disulfide 2-17, 9-23, 16-30) | – | – | – | 490 | 16800 | 410
CC[C@H](C)[C@@H]1NC(=O)[C@@H]2CSSC[C@@H]3NC(=O)[C@H](C(C)C)NC(=O)[C@H](CC(C)C)NC(=O)[C@H](CC(N)=O)NC(=O)[C@@H]4CCCN4C(=O)[C@H](CCCNC(=N)N)NC(=O)[C@H](CSSC[C@H](NC(=O)[C@@H](N)CC(=O)O)C(=O)N[C@@H](CC(C)C)C(=O)NCC(=O)N[C@@H](Cc4ccccc4)C(=O)N[C@@H](CCSC)C(=O)N[C@@H](CCCNC(=N)N)C(=O)N[C@@H](CCCNC(=N)N)C(=O)N2)NC(=O)[C@H](CSSC[C@@H](C(=O)N[C@@H](CCCCN)C(=O)N[C@@H](Cc2ccc(O)cc2)C(=O)N[C@H](C(=O)N[C@@H](Cc2ccccc2)C(N)=O)C(C)C)NC(=O)[C@H](Cc2c[nH]c4ccccc24)NC(=O)[C@H](CCCCN)NC(=O)[C@H](Cc2cnc[nH]2)NC(=O)[C@H]([C@@H](C)O)NC(=O)[C@H](CCCNC(=N)N)NC(=O)[C@H](CO)NC3=O)NC(=O)[C@H](CCCCN)NC(=O)[C@H](CC(=O)O)NC(=O)[C@H](CC(N)=O)NC(=O)[C@H](CC(=O)O)NC(=O)[C@@H]2CCCN2C1=O [[Arg8]GpTx-1(1-34)] (H-DCLGFMRRCIPDNDKCCRPNLVCSRTHKWCKYVF-NH2; disulfide 2-17, 9-23, 16-30) | – | – | – | 140 | 13800 | 120
